Data published in publication PMC12628652, “A Validated UPLC‐MS/MS Method for Monitoring Temozolomide and Perillyl Alcohol Metabolites in Biological Matrices: Insights From a Preclinical Pharmacokinetic Study” (Biomedical Chromatography, 2025).
One block for each compound: values may come before it.

Key:
[1] = Stability of analytes in rat plasma and tissue matrices (freeze-thaw, bench-top, autosampler); assay type: physicochemical; conditions: for Stability (ER %) Autosampler: 10°C for 24 h; for Stability (ER %) Bench-top: room temperature for 6 h; for Stability (ER %) Freeze/thaw: three freeze–thaw cycles over 24-h intervals
Method: QC samples were prepared by spiking blank rat plasma with PA, AIC, and TMZ at three concentration levels: 30, 80, and 200 ng/mL. Internal standards (IS1 and IS2) were added to each sample at a final concentration of 100 ng/mL. Whole blood was obtained from untreated anesthetized rats that were euthanized as part of the study protocol. Blood samples were collected into heparinized tubes and centrifuged at 3500 rpm for 10 min at 20°C to separate plasma. Organs including the brain, lungs, kidneys, spleen, and liver were promptly excised and homogenized using a Marconi mechanical tissue homogenizer (5 mm probe) in phosphate‐buffered saline (PBS, pH 7.4) at a 1:5 (w/v) tissue‐to‐buffer ratio.
For each matrix sample, 50 μL of homogenate or plasma was mixed with 50 μL of internal standard (IS) solution (100 ng/mL), followed by the addition of the respective working solution to reach the target analyte concentration. The volume was adjusted to 1 mL using an appropriate solvent mixture. Samples were centrifuged again at 3500 rpm for 10 min at 4°C. The resulting supernatants were filtered through 0.22 μm membrane filters prior to chromatographic analysis. All calibration standards and QC samples were prepared freshly on the day of analysis to minimize analyte degradation.
The stability of PA, AIC, and TMZ in rat plasma was assessed under the following conditions using low, medium, and high QC levels: (1) Freeze–thaw stability: Three freeze–thaw cycles over 24‐h intervals; (2) Bench‐top stability: Storage at room temperature for 6 h; (3) Autosampler stability: Storage at 10°C for 24 h. Analytes were considered stable if the relative error (RE%) remained within ±15% (Tiwari and Tiwari [2010]).

[2] = Pharmacokinetic study in rats after single oral administration of POH and TMZ (plasma, UPLC-MS/MS); assay type: in vivo, Male Wistar rats; conditions: rat plasma; for Tmax / Cmax / half-life / k el / AUC(0-t): male, Wistar; for AUC(0-t): read-out: AUC0–24h
Method: Approximately 200 μL of whole blood was collected from the tail vein of each rat. Samples were centrifuged at 3500 rpm for 10 min at 20°C to separate the plasma. Plasma samples were then subjected to liquid–liquid extraction with ACN. The mixture was centrifuged again at 3500 rpm for 10 min at 4°C. The resulting supernatant was filtered through hydrophobic 0.22 μm membranes and transferred to autosampler vials. A 2 μL aliquot of each sample was injected into the UPLC‐MS/MS system for analysis.
Thawed plasma samples (50 μL) were also prepared by protein precipitation. Each sample was mixed with 50 μL of IS solution and 900 μL of ACN, followed by centrifugation at 3500 rpm for 10 min at 20°C. The supernatants were filtered and analyzed as described. All dilutions were performed based on analyte concentration to ensure compliance with the method's validated dynamic range.
The pharmacokinetic and biodistribution study was conducted in accordance with ethical guidelines and approved by the Animal Ethics Committee of the Universidade Estadual do Centro‐Oeste, Brazil (Protocol No. 026/2023). Male Wistar rats (n = 6 for pharmacokinetics; n = 4 for biodistribution), weighing approximately 200 g, were housed under controlled environmental conditions (12 h light/dark cycle, 35% relative humidity, and temperature of 23°C ± 2°C). Animals had free access to food and water, which were withheld 10 h prior to drug administration and resumed 2 h afterward.
Each animal received a single oral dose of POH (47 mg/kg) and TMZ (2 mg/kg). For pharmacokinetic profiling, blood samples were collected via the tail vein into heparinized tubes at predefined time points: 0.5, 1, 2, 4, 8, 12, and 24 h post‐administration. For biodistribution analysis, a separate cohort of rats (n = 4) was sacrificed 4 h after dosing. Organs, including the brain, liver, lungs, kidneys, and spleen, were collected, homogenized, and stored at −20°C for subsequent quantification, as detailed in Section 3.2.
Pharmacokinetic parameters were calculated using non‐compartmental analysis with the PKSolver plugin for Microsoft Excel. The following parameters were determined: area under the plasma concentration–time curve from 0 to 24 h (AUC0–24h), maximum plasma concentration (Cmax), time to reach Cmax (tmax), elimination half‐life (t1/2), volume of distribution (VD), and total clearance (CL).

[3] = rat brain homogenate, 200 ng/mL
[4] = rat kidney homogenate, 30 ng/mL
[5] = rat kidney homogenate, 80 ng/mL
[6] = rat kidney homogenate, 200 ng/mL
[7] = rat liver homogenate, 200 ng/mL
[8] = rat spleen homogenate, 30 ng/mL
[9] = rat spleen homogenate, 80 ng/mL
[10] = rat spleen homogenate, 200 ng/mL
[11] = single oral dose POH 47 mg/kg and TMZ 2 mg/kg, n = 6

Stability (ER %) Autosampler ([1]; rat brain homogenate, 30 ng/mL): 2.95%
Stability (ER %) Bench-top ([1]; rat brain homogenate, 30 ng/mL): 1.28%
Stability (ER %) Freeze/thaw ([1]; rat brain homogenate, 30 ng/mL): 1.93%
Stability (ER %) Autosampler ([1]; rat brain homogenate, 80 ng/mL): 2.37%
Stability (ER %) Bench-top ([1]; rat brain homogenate, 80 ng/mL): 10.03%
Stability (ER %) Freeze/thaw ([1]; rat brain homogenate, 80 ng/mL): 7.85%
Stability (ER %) Autosampler [1, 3]: 4.49%
Stability (ER %) Bench-top [1, 3]: 5.74%
Stability (ER %) Freeze/thaw [1, 3]: 2.46%
Stability (ER %) Autosampler [1, 4]: 4.24%
Stability (ER %) Bench-top [1, 4]: 9.61%
Stability (ER %) Freeze/thaw [1, 4]: 8.61%
Stability (ER %) Autosampler [1, 5]: 3.42%
Stability (ER %) Bench-top [1, 5]: 7.75%
Stability (ER %) Freeze/thaw [1, 5]: 7.99%
Stability (ER %) Autosampler [1, 6]: 3.31%
Stability (ER %) Bench-top [1, 6]: 1.36%
Stability (ER %) Freeze/thaw [1, 6]: 1.82%
Stability (ER %) Autosampler ([1]; rat liver homogenate, 30 ng/mL): 5.04%
Stability (ER %) Bench-top ([1]; rat liver homogenate, 30 ng/mL): 1.59%
Stability (ER %) Freeze/thaw ([1]; rat liver homogenate, 30 ng/mL): 1.52%
Stability (ER %) Autosampler ([1]; rat liver homogenate, 80 ng/mL): 2.92%
Stability (ER %) Bench-top ([1]; rat liver homogenate, 80 ng/mL): 2.49%
Stability (ER %) Freeze/thaw ([1]; rat liver homogenate, 80 ng/mL): 3.24%
Stability (ER %) Autosampler [1, 7]: 4.45%
Stability (ER %) Bench-top [1, 7]: 0.42%
Stability (ER %) Freeze/thaw [1, 7]: 2.39%
Stability (ER %) Autosampler ([1]; rat lung homogenate, 30 ng/mL): 4.01%
Stability (ER %) Bench-top ([1]; rat lung homogenate, 30 ng/mL): 1.39%
Stability (ER %) Freeze/thaw ([1]; rat lung homogenate, 30 ng/mL): 2.68%
Stability (ER %) Autosampler ([1]; rat lung homogenate, 80 ng/mL): 4.14%
Stability (ER %) Bench-top ([1]; rat lung homogenate, 80 ng/mL): 2.94%
Stability (ER %) Freeze/thaw ([1]; rat lung homogenate, 80 ng/mL): 4.23%
Stability (ER %) Autosampler ([1]; rat lung homogenate, 200 ng/mL): 3.04%
Stability (ER %) Bench-top ([1]; rat lung homogenate, 200 ng/mL): 8.02%
Stability (ER %) Freeze/thaw ([1]; rat lung homogenate, 200 ng/mL): 6.65%
Stability (ER %) Autosampler ([1]; rat plasma, 30 ng/mL): 10.61%
Stability (ER %) Bench-top ([1]; rat plasma, 30 ng/mL): 5.32%
Stability (ER %) Freeze/thaw ([1]; rat plasma, 30 ng/mL): 1.26%
Stability (ER %) Autosampler ([1]; rat plasma, 80 ng/mL): 14.01%
Stability (ER %) Bench-top ([1]; rat plasma, 80 ng/mL): 11.90%
Stability (ER %) Freeze/thaw ([1]; rat plasma, 80 ng/mL): 8.67%
Stability (ER %) Autosampler ([1]; rat plasma, 200 ng/mL): 3.21%
Stability (ER %) Bench-top ([1]; rat plasma, 200 ng/mL): 13.82%
Stability (ER %) Freeze/thaw ([1]; rat plasma, 200 ng/mL): 4.45%
Stability (ER %) Autosampler [1, 8]: 3.25%
Stability (ER %) Bench-top [1, 8]: 2.55%
Stability (ER %) Freeze/thaw [1, 8]: 2.72%
Stability (ER %) Autosampler [1, 9]: 2.24%
Stability (ER %) Bench-top [1, 9]: 6.84%
Stability (ER %) Freeze/thaw [1, 9]: 5.52%
Stability (ER %) Autosampler [1, 10]: 3.41%
Stability (ER %) Bench-top [1, 10]: 9.57%
Stability (ER %) Freeze/thaw [1, 10]: 8.51%
Tmax ([2]; single oral dose POH 47 mg/kg): ≤ 0.5 h
Cmax [2, 11]: 704 ng/mL
Tmax [2, 11]: 0.5 h
half-life [2, 11]: 19 h
k el [2, 11]: 1e-05 s⁻¹
AUC(0-t) [2, 11]: 2200 ng·h/mL
CL [2, 11]: 3.83 mL/min/kg
Vd [2, 11]: 6.26 L/kg
SMILES: C=C(C)[C@@H]1CC=C(C(=O)O)CC1 [PA, perillic acid]

Stability (ER %) Autosampler ([1]; rat brain homogenate, 30 ng/mL): 1.65%
Stability (ER %) Bench-top ([1]; rat brain homogenate, 30 ng/mL): 1.48%
Stability (ER %) Freeze/thaw ([1]; rat brain homogenate, 30 ng/mL): 9.76%
Stability (ER %) Autosampler ([1]; rat brain homogenate, 80 ng/mL): 1.89%
Stability (ER %) Bench-top ([1]; rat brain homogenate, 80 ng/mL): 7.73%
Stability (ER %) Freeze/thaw ([1]; rat brain homogenate, 80 ng/mL): 0.84%
Stability (ER %) Autosampler [1, 3]: 4.29%
Stability (ER %) Bench-top [1, 3]: 2.32%
Stability (ER %) Freeze/thaw [1, 3]: 4.42%
Stability (ER %) Autosampler [1, 4]: 1.41%
Stability (ER %) Bench-top [1, 4]: 1.99%
Stability (ER %) Freeze/thaw [1, 4]: 3.69%
Stability (ER %) Autosampler [1, 5]: 3.14%
Stability (ER %) Bench-top [1, 5]: 8.22%
Stability (ER %) Freeze/thaw [1, 5]: 9.44%
Stability (ER %) Autosampler [1, 6]: 4.92%
Stability (ER %) Bench-top [1, 6]: 3.77%
Stability (ER %) Freeze/thaw [1, 6]: 4.52%
Stability (ER %) Autosampler ([1]; rat liver homogenate, 30 ng/mL): 3.82%
Stability (ER %) Bench-top ([1]; rat liver homogenate, 30 ng/mL): 1.49%
Stability (ER %) Freeze/thaw ([1]; rat liver homogenate, 30 ng/mL): 5.67%
Stability (ER %) Autosampler ([1]; rat liver homogenate, 80 ng/mL): 4.07%
Stability (ER %) Bench-top ([1]; rat liver homogenate, 80 ng/mL): 6.41%
Stability (ER %) Freeze/thaw ([1]; rat liver homogenate, 80 ng/mL): 8.17%
Stability (ER %) Autosampler [1, 7]: 3.33%
Stability (ER %) Bench-top [1, 7]: 1.57%
Stability (ER %) Freeze/thaw [1, 7]: 1.54%
Stability (ER %) Autosampler ([1]; rat lung homogenate, 30 ng/mL): 4.82%
Stability (ER %) Bench-top ([1]; rat lung homogenate, 30 ng/mL): 7.99%
Stability (ER %) Freeze/thaw ([1]; rat lung homogenate, 30 ng/mL): 6.24%
Stability (ER %) Autosampler ([1]; rat lung homogenate, 80 ng/mL): 3.02%
Stability (ER %) Bench-top ([1]; rat lung homogenate, 80 ng/mL): 9.32%
Stability (ER %) Freeze/thaw ([1]; rat lung homogenate, 80 ng/mL): 7.19%
Stability (ER %) Autosampler ([1]; rat lung homogenate, 200 ng/mL): 2.51%
Stability (ER %) Bench-top ([1]; rat lung homogenate, 200 ng/mL): 5.54%
Stability (ER %) Freeze/thaw ([1]; rat lung homogenate, 200 ng/mL): 1.34%
Stability (ER %) Autosampler ([1]; rat plasma, 30 ng/mL): 12.84%
Stability (ER %) Bench-top ([1]; rat plasma, 30 ng/mL): 1.39%
Stability (ER %) Freeze/thaw ([1]; rat plasma, 30 ng/mL): 3.94%
Stability (ER %) Autosampler ([1]; rat plasma, 80 ng/mL): 5.39%
Stability (ER %) Bench-top ([1]; rat plasma, 80 ng/mL): 3.94%
Stability (ER %) Freeze/thaw ([1]; rat plasma, 80 ng/mL): 4.29%
Stability (ER %) Autosampler ([1]; rat plasma, 200 ng/mL): 13.24%
Stability (ER %) Bench-top ([1]; rat plasma, 200 ng/mL): 1.94%
Stability (ER %) Freeze/thaw ([1]; rat plasma, 200 ng/mL): 9.83%
Stability (ER %) Autosampler [1, 8]: 2.64%
Stability (ER %) Bench-top [1, 8]: 6.41%
Stability (ER %) Freeze/thaw [1, 8]: 5.86%
Stability (ER %) Autosampler [1, 9]: 2.61%
Stability (ER %) Bench-top [1, 9]: 1.35%
Stability (ER %) Freeze/thaw [1, 9]: 1.35%
Stability (ER %) Autosampler [1, 10]: 2.22%
Stability (ER %) Bench-top [1, 10]: 1.05%
Stability (ER %) Freeze/thaw [1, 10]: 3.86%
Cmax [2, 11]: 1450 ng/mL
Tmax [2, 11]: 1 h
half-life [2, 11]: 18.4 h
k el [2, 11]: 1.03e-05 s⁻¹
AUC(0-t) [2, 11]: 8170 ng·h/mL
CL [2, 11]: 1.5 mL/min/kg
Vd [2, 11]: 1.75 L/kg
SMILES: Cn1nnc2c(C(N)=O)ncn2c1=O [TMZ, Temozolomide]
